Assay results taken from US8324254B2, “Oxadiazole substituted indazole derivatives for use as sphingosine 1-phosphate (S1P) agonists” (Glaxo Group Limited, priority 2007, dated 2012).

Target: T1, S1P1 receptor (Homo sapiens, UniProt P21453)
T1 construct: expressed in transfected cells; membranes
Experiment: S1P1 GTPγS binding assay
Format: biochemical
Conditions: membranes of Rat Basophilic Leukaemia cells (RBL) stably expressing S1P1 receptor, 35S-GTPγS
Protocol: Rat Basophilic Leukaemia cells (RBL) stably expressing S1P1 receptor were grown to 80% confluency before being harvested into 10 ml Phospho-Buffered Saline (PBS) and centrifuged at 1200 rpm for 5 minutes. After removal of the supernatant, the pellet was re-suspended and homogenised in 20 volumes assay buffer (20 mM HEPES pH 7.4, 100 mM NaCl, 10 mM MgCl2.6H2O, 10 μM GDP Saponin 10 μg/ml). The membrane suspension was further centrifuged for 20 minutes at 20,000 rpm re-homogenised and spun again. Following the second centrifugation the pellet was resuspended in an appropriate volume (1 ml for each flask of cells) and assayed for protein concentration.
Concentrated stock of S1P was sonicated before serial dilutions were prepared from a starting concentration of 10^−5 M. Diluted membranes (10 μg/well) were incubated with various concentrations of S1P and 0.3 nM ^35S-GTPγS (NEN; specific activity 1250 Ci/mmol) in 96 deep well plates. Binding was performed at 30° C. for 45 minutes and terminated by harvesting the membranes onto GF/B filter plates using a Packard Universal Harvester. After drying the plates for 45 minutes, 50 μl of Microscint 0 was added to each well and binding measured on a Topcount NXT (Perkin Elmer). Data was analysed using Graphpad Prism 4 and expressed as percentage stimulation above basal. […]

T1 sequence (P21453 whole entry): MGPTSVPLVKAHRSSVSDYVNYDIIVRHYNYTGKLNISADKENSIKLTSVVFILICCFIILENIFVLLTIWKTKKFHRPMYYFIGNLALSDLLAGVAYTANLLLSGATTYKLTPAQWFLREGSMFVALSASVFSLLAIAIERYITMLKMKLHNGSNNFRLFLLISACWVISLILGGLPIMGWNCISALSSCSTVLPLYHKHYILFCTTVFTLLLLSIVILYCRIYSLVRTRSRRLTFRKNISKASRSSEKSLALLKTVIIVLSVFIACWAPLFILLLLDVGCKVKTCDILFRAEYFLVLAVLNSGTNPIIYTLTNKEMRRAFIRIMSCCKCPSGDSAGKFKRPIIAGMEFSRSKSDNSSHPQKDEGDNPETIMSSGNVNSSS

## CC(C)Oc1ccc(-c2nc(-c3ccc4c(cnn4CCC(=O)O)c3)no2)cc1Cl [Example 1, 3-[5-(5-{3-Chloro-4-[(1-methylethyl)oxy]phenyl}-1,2,4-oxadiazol-3-yl)-1H-indazol-1-yl]propanoic acid]
  EC50: < 1 µM
